Test results reported in patent EP4603105A1, “PHARMACEUTICAL COMPOSITION CONTAINING CYCLIC COMPOUND HAVING SELECTIVE KRAS INHIBITORY EFFECT AGAINST HRAS AND NRAS” (CHUGAI SEIYAKU KABUSHIKI KAISHA, priority 2022, dated 2024).
pIC50, pKd: −log10 of the molar value.

Legend:
[1] = target: GDP-bound KRAS wild-type protein (Homo sapiens, UniProt P01116); test: Binding to KRAS by surface plasmon resonance (SPR), dissociation constant KD; conditions: 1:1 binding model
Procedure, shortened: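 Running buffer contained 10 µM GDP and 10 mM MgCl2 to keep RAS in the GDP state, with 4% DMSO at pH 7.4. Compounds were flowed at 100 µL/min in 75 s steps of rising concentration over captured biotin-Avi RAS at 30°C. Sensorgrams were fitted 1:1 for KD.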

[2] = target: GDP-bound NRAS wild-type protein (Homo sapiens, UniProt P01111); test: Binding to NRAS by surface plasmon resonance (SPR), KD and KD ratio to KRAS; conditions: ratio of KD for GDP-bound NRAS wild-type protein to KD for KRAS
Chain of GDP-bound NRAS wild-type protein (P01111 whole entry): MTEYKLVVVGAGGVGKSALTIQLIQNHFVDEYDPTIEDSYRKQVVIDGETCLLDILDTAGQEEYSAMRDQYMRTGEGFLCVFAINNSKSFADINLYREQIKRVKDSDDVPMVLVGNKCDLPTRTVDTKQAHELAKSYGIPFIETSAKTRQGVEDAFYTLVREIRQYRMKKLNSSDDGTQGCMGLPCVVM
Procedure, shortened: (§1)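 Compound binding is evaluated by SPR single-cycle kinetics, with concentrations added intermittently from low to high for 75 s each. Target surfaces carry GDP-loaded biotinylated Avi-RAS at about 100–300 RU, regenerated after each cycle; temperature 30°C. A 1:1 binding model gives KD.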

[3] = target: HRAS wild-type protein (Homo sapiens, UniProt P01112); test: Binding to HRAS by surface plasmon resonance (SPR), KD and KD ratio to KRAS; conditions: ratio of KD for HRAS wild-type protein to KD for KRAS
Chain of HRAS wild-type protein (P01112 whole entry): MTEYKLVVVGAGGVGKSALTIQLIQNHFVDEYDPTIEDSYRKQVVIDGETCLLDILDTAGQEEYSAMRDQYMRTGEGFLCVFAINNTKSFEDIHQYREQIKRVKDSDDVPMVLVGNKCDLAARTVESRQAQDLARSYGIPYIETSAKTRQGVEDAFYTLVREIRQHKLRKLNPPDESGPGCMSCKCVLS
Procedure, shortened: as §1

[4] = test system: human lung cancer strain NCI-H441; test: NCI-H441 cell proliferation inhibitory activity (CellTiter-Glo, 4 days); format: cell-based; conditions: NCI-H441 cells, 4 days, read-out: NCl-H441 IC50
Procedure, shortened: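 Proliferation was scored by […] measured after the reagent was added to cultures kept at 37°C in 5% carbon dioxide.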

Chain of GDP-bound KRAS wild-type protein (P01116 1-188 isoform P01116-2): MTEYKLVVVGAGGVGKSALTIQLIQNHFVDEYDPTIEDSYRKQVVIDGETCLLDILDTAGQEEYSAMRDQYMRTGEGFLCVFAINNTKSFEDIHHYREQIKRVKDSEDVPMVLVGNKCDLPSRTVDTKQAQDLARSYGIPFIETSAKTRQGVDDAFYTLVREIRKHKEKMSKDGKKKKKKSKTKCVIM

| SMILES | pKd [1] | pIC50 [4] | NRAS /KRAS [2] | HRAS /KRAS [3] |
| --- | --- | --- | --- | --- |
| CCC(CC)[C@H]1C(=O)N(C)[C@H](C(=O)N(C)C)CC(=O)N(C)[C@@H](COC)C(=O)N[C@@H]([C@@H](C)CC)C(=O)N(C)CC(=O)N(C)[C@H]2C/C=C\CCN(C2=O)[C@@H](Cc2ccc(C(F)(F)F)cc2)C(=O)N(C)CC(=O)N[C@@H](CCc2ccc(Cl)c(Cl)c2)C(=O)N2C[C@H](OC3CCCC3)C[C@H]2C(=O)NC2(CC(C)(C)C2)C(=O)N1C [PP2648] | 9.07 | 7.16 | A (a compound having 10 or more and less than 20 is denoted as A) | A (a compound having 10 or more and less than 20 is denoted as A) |
| CCC(CC)[C@H]1C(=O)N(C)[C@H](C(=O)N(C)C)CC(=O)N(C)[C@@H](COC)C(=O)N[C@@H]([C@@H](C)CC)C(=O)N(C)CC(=O)N(C)[C@H]2C/C=C\CCN(C2=O)[C@@H](Cc2ccc(C(F)F)cc2)C(=O)N(C)CC(=O)N[C@@H](CCc2ccc(Cl)c(Cl)c2)C(=O)N2C[C@H](OC3CCCC3)C[C@H]2C(=O)NC2(CC(C)(C)C2)C(=O)N1C [PP2649] | 9.40 | 7.21 | AA (a compound having 20 or more is denoted as AA) | A (a compound having 10 or more and less than 20 is denoted as A) |
| CCC(CC)[C@H]1C(=O)N(C)[C@H](C(=O)N(C)C)CC(=O)N(C)[C@@H](COC)C(=O)N[C@@H]([C@@H](C)CC)C(=O)N2CCC[C@H]2C(=O)N(C)[C@H]2C/C=C\CCN(C2=O)[C@@H](Cc2ccc(C(F)(F)F)cc2)C(=O)N(C)CC(=O)N[C@@H](CCc2ccc(Cl)c(Cl)c2)C(=O)N2C[C@H](OC3CCCC3)C[C@H]2C(=O)NC2(CC(C)(C)C2)C(=O)N1C [PP2651] | 8.72 | 6.83 | AA (a compound having 20 or more is denoted as AA) | A (a compound having 10 or more and less than 20 is denoted as A) |
| CCC(CC)[C@H]1C(=O)N(C)[C@H](C(=O)N(C)C)CC(=O)N(C)[C@@H](COC)C(=O)N[C@@H]([C@@H](C)CC)C(=O)N2CCC[C@H]2C(=O)N(C)[C@H]2C/C=C\CCN(C2=O)[C@@H](Cc2ccc(C(F)F)cc2)C(=O)N(C)CC(=O)N[C@@H](CCc2ccc(Cl)c(Cl)c2)C(=O)N2C[C@H](OC3CCCC3)C[C@H]2C(=O)NC2(CC(C)(C)C2)C(=O)N1C [PP2652] | 8.82 | 7.08 | AA (a compound having 20 or more is denoted as AA) | A (a compound having 10 or more and less than 20 is denoted as A) |
| CCO[C@@H]1C[C@H]2C(=O)NC3(CC(C)(C)C3)C(=O)N(C)[C@@H](C3CCCC3)C(=O)N(C)[C@H](C(=O)N3CCCCC3)CC(=O)N(C)[C@@H](COC)C(=O)N[C@@H]([C@@H](C)CC)C(=O)N(C)CC(=O)N(C)[C@H]3C/C=C\CCN(C3=O)[C@@H](Cc3ccc(C(F)(F)F)cc3)C(=O)N(C)CC(=O)N[C@@H](CCc3ccc(Cl)c(Cl)c3)C(=O)N2C1 [PP2670] | 9.32 | 7.60 | AA (a compound having 20 or more is denoted as AA) | A (a compound having 10 or more and less than 20 is denoted as A) |
| CC[C@H](C)[C@@H]1NC(=O)[C@H](COC)N(C)C(=O)C[C@@H](C(=O)N2CCCCC2)N(C)C(=O)[C@H](C2CCCC2)N(C)C(=O)C2(CC(C)(C)C2)NC(=O)[C@@H]2C[C@@H](OC(C)C)CN2C(=O)[C@H](CCc2ccc(Cl)c(Cl)c2)NC(=O)CN(C)C(=O)[C@H](Cc2ccc(C(F)(F)F)cc2)N2CC/C=C\C[C@@H](C2=O)N(C)C(=O)CN(C)C1=O [PP2671] | 9.17 | 7.58 | A (a compound having 10 or more and less than 20 is denoted as A) | A (a compound having 10 or more and less than 20 is denoted as A) |
| CCC[C@H]1C(=O)N[C@@H]([C@@H](C)CC)C(=O)N(C2CC2)CC(=O)N(C)[C@H]2C/C=C\CCN(C2=O)[C@@H](Cc2ccc(C)cc2)C(=O)N(C)CC(=O)N[C@@H](CCc2ccc(C(F)(F)F)c(OC)c2)C(=O)N2C[C@H](OCC)C[C@H]2C(=O)NC2(CC(C)(C)C2)C(=O)N(C)[C@@H](CC(C)(C)C)C(=O)N(C)[C@H](C(=O)N(C)C)CC(=O)N1C [PP2722] | 9.40 | 7.86 | B (a compound having 3 or more and less than 10 is denoted as B) | B (a compound having 3 or more and less than 10 is denoted as B) |

The next molecules have a higher pKd [1] than those just listed; values first:

| pKd [1] | pIC50 [4] | SMILES | NRAS /KRAS [2] | HRAS /KRAS [3] |
| --- | --- | --- | --- | --- |
| 9.74 | 7.84 | CC[C@H](C)[C@@H]1NC(=O)[C@H](COC)N(C)C(=O)C[C@@H](C(=O)N(C)C)N(C)C(=O)[C@H](C2CCCCC2)N(C)C(=O)C2(CC(C)(C)C2)NC(=O)[C@@H]2C[C@@H](OC(C)C)CN2C(=O)[C@H](CCc2cc(F)c(C(F)(F)F)c(F)c2)NC(=O)CN(C)C(=O)[C@H](Cc2ccc(C)cc2)N2CC/C=C\C[C@@H](C2=O)N(C)C(=O)CN(C)C1=O [PP2660] | A (a compound having 10 or more and less than 20 is denoted as A) | A (a compound having 10 or more and less than 20 is denoted as A) |
| 9.54 | 7.88 | CC[C@H](C)[C@@H]1NC(=O)[C@H](COC)N(C)C(=O)C[C@@H](C(=O)N(C)C)N(C)C(=O)[C@H](C2CCCCC2)N(C)C(=O)C2(CC(C)(C)C2)NC(=O)[C@@H]2C[C@@H](OC(C)C)CN2C(=O)[C@H](CCc2ccc(Cl)c(Cl)c2)NC(=O)CN(C)C(=O)[C@H](Cc2ccc(C(F)(F)F)cc2)N2CC/C=C\C[C@@H](C2=O)N(C)C(=O)CN(C)C1=O [PP2662] | AA (a compound having 20 or more is denoted as AA) | A (a compound having 10 or more and less than 20 is denoted as A) |
| 10.12 | 8.64 | CCC[C@H]1C(=O)N[C@@H]([C@@H](C)CC)C(=O)N(C)CC(=O)N(C)[C@H]2C/C=C\CCN(C2=O)[C@@H](Cc2ccc(C)cc2)C(=O)N(C)CC(=O)N[C@@H](CCc2cc(F)c(C(F)(F)F)c(F)c2)C(=O)N2C[C@H](OCC)C[C@H]2C(=O)NC2(CC(C)(C)C2)C(=O)N(C)[C@@H](CC(C)(C)C)C(=O)N(C)[C@H](C(=O)N(C)C)CC(=O)N1C [PP2706] | A (a compound having 10 or more and less than 20 is denoted as A) | B (a compound having 3 or more and less than 10 is denoted as B) |
| 9.96 | 8.20 | CCCOC[C@H]1C(=O)N[C@@H]([C@@H](C)CC)C(=O)N(C)CC(=O)N(C)[C@H]2C/C=C\CCN(C2=O)[C@@H](Cc2ccc(C)cc2)C(=O)N(C)CC(=O)N[C@@H](CCc2ccc(C(F)(F)F)c(OC)c2)C(=O)N2C[C@H](OCC)C[C@H]2C(=O)NC2(CC(C)(C)C2)C(=O)N(C)[C@@H](CC(C)(C)C)C(=O)N(C)[C@H](C(=O)N(C)C)CC(=O)N1C [PP2712] | A (a compound having 10 or more and less than 20 is denoted as A) | B (a compound having 3 or more and less than 10 is denoted as B) |
| 9.60 | 7.88 | CCC[C@H]1C(=O)N[C@@H]([C@@H](C)CC)C(=O)N(C)CC(=O)N(C)[C@H]2C/C=C\CCN(C2=O)[C@@H](Cc2ccc(C)cc2)C(=O)N(C)CC(=O)N[C@@H](CCc2ccc(Cl)c(Cl)c2)C(=O)N2C[C@H](OCC)C[C@H]2C(=O)NC2(CC(C)(C)C2)C(=O)N(C)[C@@H](CC(C)(C)C)C(=O)N(C)[C@H](C(=O)N(C)C)CC(=O)N1C [PP2714] | A (a compound having 10 or more and less than 20 is denoted as A) | A (a compound having 10 or more and less than 20 is denoted as A) |
| 9.48 | 8.12 | CCC[C@H]1C(=O)N[C@@H]([C@@H](C)CC)C(=O)N(C2CC2)CC(=O)N(C)[C@H]2C/C=C\CCN(C2=O)[C@@H](Cc2ccc(C)cc2)C(=O)N(C)CC(=O)N[C@@H](CCc2cc(F)c(C(F)(F)F)c(F)c2)C(=O)N2C[C@H](OCC)C[C@H]2C(=O)NC2(CC(C)(C)C2)C(=O)N(C)[C@@H](CC(C)(C)C)C(=O)N(C)[C@H](C(=O)N(C)C)CC(=O)N1C [PP2718] | A (a compound having 10 or more and less than 20 is denoted as A) | A (a compound having 10 or more and less than 20 is denoted as A) |
| 9.46 | 8.11 | CCOC[C@H]1C(=O)N[C@@H]([C@@H](C)CC)C(=O)N(C2CC2)CC(=O)N(C)[C@H]2C/C=C\CCN(C2=O)[C@@H](Cc2ccc(C)cc2)C(=O)N(C)CC(=O)N[C@@H](CCc2cc(F)c(C(F)(F)F)c(F)c2)C(=O)N2C[C@H](OCC)C[C@H]2C(=O)NC2(CC(C)(C)C2)C(=O)N(C)[C@@H](CC(C)(C)C)C(=O)N(C)[C@H](C(=O)N(C)C)CC(=O)N1C [PP2720] | A (a compound having 10 or more and less than 20 is denoted as A) | A (a compound having 10 or more and less than 20 is denoted as A) |
